How the values were obtained:
[1] = tested on: Ang II induced [Ca^2+]i increase in rat cardiomyocytes; assay: Ang II-mediated [Ca2+]i increase in cardiomyocytes; type: cell-based; conditions: pretreatment with 1 mM; sustained but not initial Ca2+
Method: Cardiomyocytes were isolated from Sprague-Dawley rats, weighing 210-240 g, by the method with a slight modification [Xie et al., Biochem. Biophys. Res. Commun. (2005)330:1290-8]. Rat hearts were rapidly excised, cannulated, and subjected to retrograde perfusion on a Langendorff apparatus at 37° C. with Ca^2+-free Krebs-Hanseleit (KH) buffer (10 mM HEPES, 118 mM NaCl, 4.7 mM KCl, 1.2 mM MgSO4, 1.2 mM KH2PO4, 25 mM NaHCO3, 10 mM pyruvate, 11 mM glucose, and […], pH 7.3) for 5 min and then with KH buffer containing 5 mM taurine, 0.075% collagenase Type II and 0.08 mg/l protease type XTV for 7-15 min and washed with KH buffer containing 0.2 mM Ca^2+. The left ventricle was removed, chopped into small pieces and further digested in a glass conical flask at 37° C. for 10 min with shaking. The undigested tissues were removed through a […] nylon sheet. […] Isolated myocytes were pelleted by centrifugation at 60×g for 2 min at room temperature and resuspended in a stabilizing buffer (pH, 7.4) containing 20 mM HEPES, 137 mM NaCl, 4.9 mM KCl, 1.2 mM MgSO4, 15 mM glucose, and 10 mM 2,3-butanedione monoxime (BDM). […] Changes in [Ca^2+]i in cardiomyocytes were determined at 488 nm excitation/530 nm emission by air-cooled argon laser system. The emitted fluorescence at 530 nm was collected using a photomultiplier. […]

[2] = tested on: Ang II induced cADPR production in rat cardiomyocytes; assay: Ang II-induced [cADPR]i in cardiomyocytes; type: cell-based; conditions: pretreatment
Method: [cADPR]i was measured using a cyclic enzymatic assay as described previously [Graeff et al., Biochem. J. (2002)361:379-84]. Aplysia californica ADPR-cyclase was purified from […] according to the method described [Lee et al., Cell Regul. (1991)2:203-9]. Briefly, MMCs were treated with 0.3 ml of 0.6 M perchloric acid under sonication after Ang II treatment. Precipitates were removed by centrifugation at 20,000×g for 10 min. […] After centrifugation for 10 min at 1500×g, the aqueous layer was collected and neutralized with 20 mM sodium phosphate (pH 8). To remove all contaminating nucleotides, the samples were incubated with the following hydrolytic enzymes overnight at 37° C.: 0.44 unit/ml nucleotide pyrophosphatase, 12.5 units/ml alkaline phosphatase, 0.0625 unit/ml NADase, and 2.5 mM MgCl2 in 20 mM sodium phosphate buffer (pH 8.0). Enzymes were removed by filtration using Centricon-3 filters. […] An increase in the resorufin fluorescence was measured at 544 nm excitation and 590 nm emission using a fluorescence plate reader (Molecular Devices Corp., Spectra-Max GEMINI). […] Measurement of [cADPR]i in cardiomyocytes were determined as described above examples 5. […]

[3] = target: T1, human CD38 (Homo sapiens, UniProt P28907); assay: ADPR-cyclase activity assay, CD38; type: biochemical; parameters: dose or concentration left out as unconfirmed
T1 sequence (P28907 1-300): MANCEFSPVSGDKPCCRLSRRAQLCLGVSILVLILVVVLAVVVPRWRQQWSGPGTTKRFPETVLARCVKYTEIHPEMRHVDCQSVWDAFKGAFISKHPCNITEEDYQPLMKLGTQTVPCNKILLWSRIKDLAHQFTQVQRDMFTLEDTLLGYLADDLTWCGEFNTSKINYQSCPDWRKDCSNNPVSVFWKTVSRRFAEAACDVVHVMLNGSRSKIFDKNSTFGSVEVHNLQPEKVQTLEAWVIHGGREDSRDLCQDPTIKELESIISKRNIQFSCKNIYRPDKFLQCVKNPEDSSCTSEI
Method: (§1) FIGS. 1A and 1B show the inhibition of rat kidney ADPR-cyclase that was incubated with […] NGD^+ or e-NAD^+ in the presence of various concentrations of 4,4′-dihydrioxyazobenzene (DHAB) at 37° C. for 10 min and effects of DHAB on human CD38, rat brain, heart, spleen, and kidney ADPR-cyclase. FIGS. 1A and 1B are referred to as FIG. 1 herein.
(§2) Specific ADPR-cyclase activity was determined by measuring cyclic GDP-ribose (cGDPR) or etheno-ADP-ribose (e-cADPR) fluorometrically using NGD^+ or e-NAD^+ as a substrate [Greaff et al., Biochem. J. (2002)361:379-84]. Samples were incubated in the presence […] NGD^+ or e-NAD^+ with and without an appropriate agent in an assay buffer (25 mM HEPES, pH 7.4, 100 mM NaCl, and 0.1% Triton X-100) in a […]. The reaction mixture was incubated at 37° C. for 10 min. The reaction was stopped by adding […] trichloroacetic acid (10%). […] Fluorescence of cGDPR or e-ADPR in the solution was determined at excitation/emission wavelengths of 297/410 nm (HITACHI F-2000 fluorescence spectrophotometer). cADPR-hydrolase activity was determined by incubating cADPR with ADPR-cyclase or CD38 at 37° C. for 20 min. Hydrolysis of cADPR was analyzed by high performance liquid chromatography as described (White et al., 2000). […]

[4] = tested on: ADPR-cyclase purified partially from rat brain; assay: ADPR-cyclase activity assay, brain enzyme; type: biochemical; parameters: dose or concentration left out as unconfirmed
Method: as §1, §2

Structure (SMILES)	effect on Ang II-evoked sustained Ca2+ increase [1]	effect on Ang II-mediated [cADPR]i [2]	sensitivity of enzyme activity to compound [3]	sensitivity of enzyme activity to compound [4]
Oc1ccccc1/N=N/c1ccccc1O [2,2′-DHAB, 2,2′-Dihydroxyazobenzene]	significantly blocked	inhibited		
Oc1ccc(N=Nc2ccc(O)cc2)cc1 [4,4′-DHAB, 4,4′-Dihydroxyazobenzene]			insensitive	insensitive

Reference: patent publication US8314082B2, “Stilbene derivatives for ADP-ribosyl cyclase inhibitors” (Industrial Cooperation Foundation Chonbuk National …, priority 2006, dated 2012)
